{"source": "patent US12399167B2", "about": "(priority 2019, dated 2025)", "key": {"[1]": {"system": "zebrafish embryos and larvae (AB strain)", "conditions": "for NH: Number of health fish: of 60 embryos", "method": "Toxicant exposure of the embryos: transferring healthy zebrafish embryos laid within 4 hours with droppers into 24 well plates which serve as embryo incubation containers, adding one embryo and 2 mL of the test drug liquid into each well, setting four replicates at a time for each concentration, using a total of 4×15 embryos per concentration; then, placing the 24 well plates into an incubator at a temperature of 26±1° C., allowing incubation under a condition of 14 h light: 10 h dark, recording the death number and the incubation time of the embryos every day, and replacing the test drug liquids once every two days during this test stage. Each concentration consumes a total of 60 embryos, and thus multiple 24 well plates are used during the test.\nSelection of a test organism: zebrafish is selected as the test organism, the zebrafish is AB strain and embryos used in the test are propagated and obtained by the following methods: before the test, zebrafish broodstock is reared in water at a temperature of 26±1° C., the ratio of light time to dark time is 14 h:10 h, and when it is lighted, it should be naturally illuminated in a 4.8 m×3.0 m room, plus four 40 W fluorescent lamps, and the feeding lasts at least 2 weeks in an environment which is oxygenated by aeration, the zebrafish broodstock is fed once a day during pre-cultivation, and feces and food residues are removed in time. The zebrafish is purchased from the Institute of Hydrobiology of Chinese Academy of Science. The zebrafish has the advantages of short growth cycle, strong reproductive ability, transparent fertilized eggs, and easy observation of embryonic development, making it an important model organism in aquatic ecological toxicology research.\nToxicant exposure of larvae: recording the number of the larvae at the end of the embryo hatching, transferring the larvae into glass beakers containing 200 mL of the test drug liquid with the corresponding test concentration, replacing the test drug liquids once every two days during this test stage that lasts 30 days after hatching, and feeding the zebrafish larvae with yolk in the first three days and then with fairy shrimp twice a day, wherein the larvae are firstly fed on the fourth or fifth day after spawning. The feed amount is adjusted according to the actual situation so as to be able to freely ingest and avoid excess.\nDuring the test, if relevant test data are found to be not in the preceding scopes, then the current test is invalid, and a new test is required to be carried out again.\nObservation in the test: observing the hatching rate and survival rate and recording the quantity of the larvae once a day; checking the larvae's malformation, the number of malformed larvae and abnormal behaviors once a week; removing impurities and dead larvae in beakers in a timely manner; all live larvae of the control groups and the concentration test groups are anesthetized with MS-222 for measurement of the body lengths and wet weights one by one at the end of the test, wherein the body length of each adolescent fish is measured with a vernier caliper, and the wet weight of each adolescent fish is weighed with an electronic balance. The reciprocal sensibility of the electronic balance is 0.00001 g, and the moisture on the body surface of each fish needs to be removed when the wet weight is weighed.\nDPS statistical analysis software is the existing software and therefore is not described in detail here. Any other software that can implement the statistical analysis function is also available."}, "[2]": {"conditions": "20° C.; cited from earlier work"}}, "note": "Where “and” joins values, the source holds several entries; their conditions need not be identical. Equal values may be shown once. Read-outs that look alike come from different tables or passages of the source."}
{"smiles": "CN/C(=N/CC1CCOC1)N[N+](=O)[O-]", "note": "(centres unmarked) [dinotefuran]", "values": [{"measurement": "weights of the larvae versus control groups", "setting": "[1]; 9.375 mg a.i./L", "value": "obviously different"}, {"measurement": "AL: Average length of live fish", "setting": "[1]; 9.375 mg a.i./L, end of test", "value": "15.86 ± 0.95", "unit": "a mm"}, {"measurement": "AM: Accumulative mortality", "setting": "[1]; 9.375 mg a.i./L, end of test", "value": 26.67, "unit": "a %"}, {"measurement": "NH: Number of health fish", "setting": "[1]; 9.375 mg a.i./L, end of test", "value": 44, "unit": "Piece"}, {"measurement": "Average weight of Live fish", "setting": "[1]; 9.375 mg/L, end of test", "value": "16.53 ± 2.18", "unit": "b mg"}, {"measurement": "weights of the larvae versus control groups", "setting": "[1]; 18.75 mg a.i./L", "value": "obviously different"}, {"measurement": "AL: Average length of live fish", "setting": "[1]; 18.75 mg a.i./L, end of test", "value": "15.83 ± 0.88", "unit": "a mm"}, {"measurement": "AM: Accumulative mortality (death rate of the larvae)", "setting": "[1]; 18.75 mg a.i./L, end of test", "value": "41.67% and 41.67 b %"}, {"measurement": "NH: Number of health fish", "setting": "[1]; 18.75 mg a.i./L, end of test", "value": 35, "unit": "Piece"}, {"measurement": "Average weight of Live fish", "setting": "[1]; 18.75 mg/L, end of test", "value": "14.21 ± 1.68", "unit": "c mg"}, {"measurement": "body lengths of the larvae versus control groups", "setting": "[1]; 37.5 mg a.i./L", "value": "obviously different"}, {"measurement": "weights of the larvae versus control groups", "setting": "[1]; 37.5 mg a.i./L", "value": "obviously different"}, {"measurement": "AL: Average length of live fish", "setting": "[1]; 37.5 mg a.i./L, end of test", "value": "13.52 ± 1.61", "unit": "b mm"}, {"measurement": "AM: Accumulative mortality (death rate of the larvae)", "setting": "[1]; 37.5 mg a.i./L, end of test", "value": "46.67% and 46.67 b %"}, {"measurement": "NH: Number of health fish", "setting": "[1]; 37.5 mg a.i./L, end of test", "value": 32, "unit": "Piece"}, {"measurement": "Average weight of Live fish", "setting": "[1]; 37.5 mg/L, end of test", "value": "13.89 ± 1.96", "unit": "c mg"}, {"measurement": "body lengths of the larvae versus control groups", "setting": "[1]; 75.0 mg a.i./L", "value": "obviously different"}, {"measurement": "weights of the larvae versus control groups", "setting": "[1]; 75.0 mg a.i./L", "value": "obviously different"}, {"measurement": "AL: Average length of live fish", "setting": "[1]; 75.0 mg a.i./L, end of test", "value": "12.83 ± 1.53", "unit": "b mm"}, {"measurement": "AM: Accumulative mortality (death rate of the larvae)", "setting": "[1]; 75.0 mg a.i./L, end of test", "value": "55.0% and 55.0 b %"}, {"measurement": "NH: Number of health fish", "setting": "[1]; 75.0 mg a.i./L, end of test", "value": 27, "unit": "Piece"}, {"measurement": "Average weight of Live fish", "setting": "[1]; 75.0 mg/L, end of test", "value": "13.29 ± 2.96", "unit": "c mg"}, {"measurement": "fate of all larvae at the end of the test", "setting": "[1]; 150 mg a.i./L", "value": "died"}, {"measurement": "fate of all larvae at the end of the test", "setting": "[1]; 300 mg a.i./L", "value": "died"}, {"measurement": "minimum observable effect concentration on the body lengths of the larvae", "setting": "[1]; end of test", "value": 37.5, "unit": "mg a.i./L"}, {"measurement": "minimum observable effect concentration on the weights of the larvae", "setting": "[1]; end of test", "value": 9.375, "unit": "mg a.i./L"}, {"measurement": "unobservable effect concentration on the body lengths of the larvae", "setting": "[1]; end of test", "value": 18.75, "unit": "mg a.i./L"}, {"measurement": "toxic symptoms during the exposure stage", "setting": "[1]; test groups", "value": "no obvious toxic symptoms were observed except malformation of several fishes before death"}, {"measurement": "solubility in methanol", "setting": "[2]", "value": 57, "unit": "mg/mL"}]}
